Test results: patent publication US10765625B2, “Knottin-drug conjugates and methods of using the same” (THE BOARD OF TRUSTEES OF THE LELAND STANFORD JUNIOR …, priority 2016, dated 2020)
Where two headings read alike, the source gives them in different places.

How the values were obtained:
Type in all cases: cell-based
U87MG cells [1] = experiment: Integrin-blocking competition: cell proliferation (CCK-8) after pre-treatment with EETI-2.5F (1); settings: 1 μM 1, 3 h pre-treatment and co-treatment
Protocol: (§1) U87MG, and PANC-1 cells were grown in Dulbecco's Modified Eagle Medium (DMEM) with 10% fetal bovine serum (FBS) and 1% penicillin/streptomycin. MDA-MB-468 cells were grown in DMEM and Ham's F-12 medium (DMEM/F12) with 10% FBS and 1% penicillin/streptomycin. A2780 and BxPC3 cells were grown in Roswell Park Memorial Institute medium (RPMI) 1640+L-glutamine, with 10% FBS and 1% penicillin/streptomycin. D270 cells were grown in MEM (Richter's modification, no phenol red) with 10% FBS and 0.1% Gentamicin. Unless otherwise specified, cells were incubated at 37° C., 5% CO2. Flow cytometry was performed using an EMD Millpore Guava EasyCyte 8HT flow cytometer and the resulting data were evaluated using FlowJo software provided by TreeStar, Inc. Cell proliferation was measured using the Dojindo Cell Counting Kit-8 by replacing the media in each well with 100 μL of media containing 10% WST-8. After incubation for 1 h at 37° C., absorbance, A, at 450 nm was measured with a BioTek Synergy H4 microtiter plate reader. The background signal of CCK-8 alone was subtracted from all samples. Cell proliferation was then expressed as a percentage of absorbance relative to the control of untreated cells (Equation 2). Nonlinear regression analysis was performed using GraphPad Prism.
One possible explanation for the apparent hENT1-independence of 5d is that its route of internalization could be integrin-mediated. The role of integrin-binding in the biological potency and hENT1-independence of 5d was determined. A competition experiment was carried out in which U87MG cells were pre-treated with unconjugated EETI-2.5F (1) in order to block integrins on the cell surface. The role of integrin-binding was studied by measuring the proliferation of U87MG cells that had been pre-treated with EETI-2.5F (1) when exposed to increasing doses of 3 and KDCs 5a, 5c, and 5d. […] Media used to prepare varying concentrations of drug, protein, or protein-drug conjugate also contained 1 μM of 1. Prior to treatment, cells were incubated for 3 h at 37° C., 5% CO2 with fresh media containing 1 μM 1. After this pre-treatment, cells were incubated with varying concentrations of 5a, 5c, or 5d for 24 h and then media was replaced with fresh media and cells were incubated for an additional 48 h. Cell proliferation was measured using the Cell Counting Kit-8 by replacing the media in each well with 100 μL of media containing 10% WST-8. After incubation for 1 h at 37° C., absorbance at 450 nm was measured with a Synergy H4 microtiter plate reader. Cell proliferation was measured according to the method described in Section 1.3. Error bars represent the standard deviation of experiments performed in triplicate.

U87MG cells [2] = experiment: Premature drug release study: cell proliferation (CCK-8) with hENT1 inhibitor 6 co-administered; settings: for Fold Increase in ED50 in U87MG Cells: ED50 with 6 / ED50 without 6, minus 1
Protocol: as §1
The relative extent of premature drug-release in the cases of 5a, 5c, and 5d was next determined in order to identify the linker best-suited for delivering the drug payload intracellularly. An established technique for blocking the cellular uptake of Gemcitabine by using S (4-nitrobenzyl)-6-thioinosine (6) was employed, which is known to inhibit human equilibrative nucleoside transporters, such as hENT1. Because hENT1 is a critical regulator of the cellular internalization of Gemcitabine, it was reasoned that by inhibiting its activity with 6, the cytotoxic effect of any drug payload that was released in the extracellular environment could be diminished. It was anticipated that this would allow the distinction between KDCs that were potent due to the undesirable release of Gemcitabine outside of the cell from those that released Gemcitabine intracellularly (FIG. 6). The extent of premature drug release in the extracellular environment was studied by inhibiting activity of nucleoside transporters (such as hENT1) of U87MG cells through the use of the hENT1 inhibitor S-(4-nitrobenzyl)-6-thioinosine (6). […] In a similar fashion, it was expected that for KDCs which released a significant amount of the drug payload in the extracellular environment, an increase in the concentration of 6 should result in a concomitant increase in ED50 value.
Media used to prepare varying concentrations of drug, protein, or protein-drug conjugate also contained varying concentrations of the hENT1 inhibitor, 6. Additionally, prior to treatment, cell were incubated at 37° C., 5% CO2 with fresh media containing the varying concentrations of 6 for 2 h. Cell proliferation was measured using the Cell Counting Kit-8 by replacing the media in each well with 100 μL of media containing 10% WST-8. After incubation for 1 h at 37° C., absorbance at 450 nm was measured with a Synergy H4 microtiter plate reader. ED50 values were determined by nonlinear regression analysis. Example dose-response curves for 3 (FIG. 7) and 5d (FIG. 8) are provided. Cell proliferation was measured according to the method described in Section 1.3. Error bars represent the standard deviation of experiments performed in triplicate.
These values were normalized as Fold Increase in ED50 (defined in Equation 2) by dividing the ED50 of each drug when 6 was co-administered at concentration=C by the ED50 of that same drug when no 6 was added, then subtracting 1 (thus, a “0-fold increase” would mean no increase, while a “1-fold increase” would mean that the ED50 value had doubled). Fold Increase in ED50 for each drug at each concentration of 6 is provided in Table 5, and these values were used to generate FIG. 9.

U87MG cells [3] = experiment: Cell proliferation, CCK-8 colorimetric assay
Protocol: as §1
Next, the potency of each KDC was tested in a cell-proliferation experiment. […] Cells were seeded in a 96-well plate at a density of 2,500 cells per well and grown overnight at 37° C., 5% CO2 in DMEM with 10% FBS and 1% penicillin/streptomycin. Cells were subsequently treated with 100 μL of fresh media, containing varying concentrations of drug, protein, or protein-drug conjugate and incubated for 4 d at 37° C., 5% CO2. Cell proliferation was measured according to the method described in Section 1.3. Error bars represent the standard deviation of experiments performed in triplicate. […] Given that the linker must be cleaved to release free Gemcitabine in order for the payload to become active, the low potency of 5b can be explained by the greater stability of the carbamate group as compared to the other linkers tested.

SMILES: CC(C)C[C@@H]1NC(=O)[C@@H]2CSSC[C@@H](C(=O)NCC(=O)O)NC(=O)[C@H](Cc3ccccc3)NC(=O)CNC(=O)[C@H](CC(N)=O)NC(=O)[C@@H]3CCCN3C(=O)CNC(=O)[C@@H]3CSSC[C@H](NC(=O)[C@H]([C@@H](C)O)NC(=O)[C@H](CC(C)C)NC(=O)[C@@H]4CCCN4C(=O)[C@@H]4CCCN4C(=O)[C@H](CC(N)=O)NC(=O)[C@H](CC(=O)O)NC(=O)CNC(=O)[C@H](CCCNC(=N)N)NC(=O)[C@@H]4CCCN4C(=O)[C@H](CCCNC(=N)N)NC(=O)[C@@H]4CCCN4C(=O)[C@@H](NC(=O)CN)CSSC[C@H](NC(=O)CNC(=O)[C@H](C)NC1=O)C(=O)N[C@@H](C(C)C)C(=O)N3)C(=O)N[C@@H](CCCn1cc(CCC(=O)N[C@H](C(=O)N[C@@H](C)C(=O)Nc3ccc(COC(=O)Nc4ccn([C@@H]5O[C@H](CO)[C@@H](O)C5(F)F)c(=O)n4)cc3)C(C)C)nn1)C(=O)N[C@@H](CCC(N)=O)C(=O)N[C@@H](CC(=O)O)C(=O)N[C@@H](CO)C(=O)N[C@@H](CC(=O)O)C(=O)N2 [5d]
- Effect of integrin blocking by pre-treatment with 1 on potency (in words) (U87MG cells [1]): abolishes the potency
- Effect of hENT1 inhibitor 6 on potency (ED50) (in words) (U87MG cells [2]; U87MG cells, increasing concentrations of 6 up to 10 μM): no effect on the potency
- Fold Increase in ED50 in U87MG Cells (U87MG cells [2]; [6] = 0 nM): 0
- Fold Increase in ED50 in U87MG Cells (U87MG cells [2]; [6] = 1 nM): −0.3 ± 0.3
- Fold Increase in ED50 in U87MG Cells (U87MG cells [2]; [6] = 10 nM): −0.6 ± 0.6
- Fold Increase in ED50 in U87MG Cells (U87MG cells [2]; [6] = 100 nM): 0.6 ± 1.0
- Fold Increase in ED50 in U87MG Cells (U87MG cells [2]; [6] = 1000 nM): 1.2 ± 1.2
- Fold Increase in ED50 in U87MG Cells (U87MG cells [2]; [6] = 10000 nM): 8.1 ± 5.4
- Potency / growth inhibition in U87MG cells (in words) (U87MG cells [3]; U87MG cells, 4 d): low-nanomolar ED50 values
- EC50 (U87MG cells [3]; U87MG cells, 4 d incubation, vs untreated control, read-out: ED50 (nM), potency): 9 ± 1.8 nM
- EC50 (U87MG cells [3]; U87MG glioblastoma, 4 d after treatment, read-out: ED50 (nM), cell growth inhibition): 9 ± 1.8 nM
